A short description of this series: solvent given as SMILES.

Regarding `CCCCN(CCCC)c1ccc2c#cc3cc4c#cc5ccc(C(F)(F)F)cc5c#cc#cc5cc(N(CCCC)CCCC)ccc5c#cc4cc3c#cc3ccc(C(F)(F)F)cc3c#cc#cc2c1`, the emission maximum is given as 555 nm (in ClCCl) and 521 nm (in c1ccccc1).
On to `CCCCCCCCOc1ccc(-c2c3c4n(c(-c5ccc(OCCCCCCCC)cc5)c3c3n2[B-](c2ccccc2)(c2ccccc2)[n+]2c(ccc5cc(C(C)(C)C)ccc52)C=3C#N)[B-](c2ccccc2)(c2ccccc2)[n+]2c(ccc3cc(C(C)(C)C)ccc32)C=4C#N)cc1`, for which the emission maximum (in ClC(Cl)Cl) amounted to 831 nm.
Molecule `N#CC1=c2c3cccc4cccc(c43)n2[B-](F)(F)[n+]2ccccc21` yielded an emission maximum (in C1CCOC1) of 530 nm; an emission maximum (in CC#N) of 527 nm; an emission maximum (in CCCCCC) of 530 nm; an emission maximum (in Cc1ccccc1) of 535 nm; an emission maximum (in ClCCl) of 530 nm.
Take `N#Cc1c(-n2c3ccccc3c3cc(Br)ccc32)c(C#N)c(-n2c3ccccc3c3cc(Br)ccc32)c(-n2c3ccccc3c3cc(Br)ccc32)c1-n1c2ccccc2c2cc(Br)ccc21`: the emission maximum (in Cc1ccccc1) was 515 nm.
`O=CC1=C(c2ccc(-c3cccs3)s2)CC1`: the emission maximum reads like this: (in C1CCOC1) 470 nm; (in CC#N) 493 nm; (in CCCCCC) 464 nm; (in CCO) 516 nm; (in OCCOCCO) 526 nm; (in c1ccncc1) 495 nm.
Turning to `C=CCOC(=O)C(C#N)=C1C=C(/C=C/c2ccc(N(C)C)cc2)OC(/C=C/c2ccc(N(C)C)cc2)=C1`, the emission maximum was determined as 595 nm (in C1CCOC1); 564 nm (in C1COCCO1); 624 nm (in CC#N); 616 nm (in CN(C)C=O); 556 nm (in Cc1ccccc1); 585 nm (in ClC(Cl)Cl). The emission maximum stood at 614 nm (in ClCCCl) and 601 nm (in ClCCl).
`c1ccc2c(c1)CCc1ccccc1N2c1c2ccccc2cc2ccccc12` had an emission maximum (in Cc1ccccc1) of 507 nm.
`O=Cc1ccc(-c2ccc3c(c2)C(=O)c2cc(-c4ccc(C=O)cc4)ccc2-3)cc1` displayed an emission maximum (in C1CCOC1) of 371 nm.
`COc1c2ccccc2c(OC)c2c(C#C[Si](C(C)C)(C(C)C)C(C)C)c3cc4ccccc4cc3c(C#C[Si](C(C)C)(C(C)C)C(C)C)c12`: where the note is “in ClCCl”, the emission maximum was found to be 712 nm.
Under “in CS(C)=O”, `C(/C=C/Nc1ccccc1)=[NH+]c1ccccc1` gave an emission maximum of 492 nm.
`c1ccc(-c2ccc(-c3ccc(-c4ccccc4)cc3)cc2)cc1`: the emission maximum is, setting by setting: (in C1CCOC1) 368 nm; (in C1COCCO1) 369 nm.
Take `CC1(C)C(/C=C/c2cc3ccc(O)cc3oc2=O)=[N+](CCCS(=O)(=O)[O-])c2ccccc21`: the emission maximum is, setting by setting: (in CCO) 642 nm; (in CS(C)=O) 649 nm; (in O) 620 nm.
In turn, `CCCCCCCCCCCCN1C(=O)c2c(c3ccc4cc(-c5ccc(C=O)cc5)c(OC)cc4c3c3c2ccc2cc(-c4ccc(C=O)cc4)c(OC)cc23)C1=O` came in with an emission maximum (in ClCCl) of 523 nm.
As for `COC(=O)c1ccc2ccc3cccc4ccc1c2c34`, the emission maximum reads like this: (in C1CCOC1) 388 nm; (in CC#N) 389 nm; (in CCCCCC) 385 nm; (in CCO) 391 nm; (in CN(C)C=O) 391 nm; (in CO) 392 nm. This molecule also had an emission maximum (in Cc1ccccc1) of 390 nm and an emission maximum (in ClCCl) of 390 nm.
Regarding `c1ccc(-c2nnc(-c3ccc(-n4c5ccccc5c5ccccc54)cc3)o2)cc1`, the emission maximum is, setting by setting: (in CCO) 440 nm; (in Cc1ccccc1) 387 nm.
Molecule `CC[N+]1(CC)CN2C(=N1)C(C(=O)O)=Cc1cc(Cl)ccc12` had an emission maximum (in O) of 472 nm.
Where the note is “in ClCCl”, `C(S/C=C/c1ccc(-c2ccc(/C=C/SC=C3CCCCCCC3)cc2)cc1)=C1CCCCCCC1` showed an emission maximum of 437 nm.
For the setting “in O”, `CN(C)c1ccc2[c](c1)[Sn]([CH3])([CH3])[C]1=CC(=[N+](C)C)C=CC1=C2` showed an emission maximum of 628 nm.
As to `COc1ccc2c(c1)c1cc(OC)ccc1c1c2ccc2cccc(C(=O)NC(C)(C)C)c21`, where the note is “in ClCCl”, the emission maximum is reported as 415 nm.
`CN(C)c1ccc2c3c(c(=O)oc2c1)C=c1cc2c(cc1O3)=[N+](CCC(=O)O)CCC2`: the emission maximum is, setting by setting: (in CC#N) 644 nm; (in CO) 640 nm; (in ClCCl) 638 nm; (in O) 641 nm.
The molecule `N#Cc1ccc(C2=Cc3ccccc3P2(=O)c2ccccc2)cc1` (stereo not given) came in with an emission maximum (in ClCCl) of 426 nm.
Same read-out and setting: next, `COC(=O)c1ccc(C(=O)NC(C)(C)C)c2c1ccc1c3ccccc3c3ccccc3c12`: 448 nm.
Molecule `F[Si-](F)(c1c2ccccc2cc2ccccc12)(c1c2ccccc2cc2ccccc12)c1c2ccccc2cc2ccccc12` showed an emission maximum (in C1CCOC1) of 396 nm.
`CCCCCCCCCCc1cc(-c2cc(CCCCCCCCCC)c(-c3cccs3)s2)sc1-c1cccs1` gave an emission maximum (in CCCCCCCCCCCCCC) of 481 nm.
Regarding `Brc1ccc(N(c2ccc(/C=C/c3ccncn3)cc2)c2ccc(/C=C/c3ccncn3)cc2)cc1`, the emission maximum (in ClCCl) was determined as 555 nm.
For the molecule `COc1cc(OC)c2cc(-c3ccccc3CC#N)c(=O)oc2c1`, under “in ClC(Cl)Cl”, the emission maximum is on record as 422 nm.
Regarding `CCCCCCc1ccc(-n2c3[n+](c4c5ccccc5c5ccccc5c42)[B-](C)(C)c2ccc4ccccc4c2-3)cc1`, the emission maximum came out at 444 nm (in C1CCOC1), 443 nm (in CC#N), 444 nm (in Cc1ccccc1) and 435 nm (in ClCCl).
For the molecule `Nc1cccc2cccc(N)c12`, the emission maximum came out at 413 nm (in CC#N), 427 nm (in CO), 411 nm (in CS(C)=O) and 403 nm (in Cc1ccccc1).
For `CN(C)c1ccc(/C=C/c2ccnc(/C=C/c3ccc(N(C)C)cc3)n2)cc1`, the emission maximum runs as follows: (in C1CCOC1) 484 nm; (in CC#N) 513 nm; (in CC(C)=O) 523 nm; (in CCCCCCC) 433 nm; (in CS(C)=O) 527 nm; (in Cc1ccccc1) 455 nm. Where the note is “in ClCCl”, this molecule returned an emission maximum of 493 nm.
On to `COc1ccc(-c2ccc(-c3ccc(F)cc3)cc2)cc1`, for which, under “in C1COCCO1”, the emission maximum came out at 352 nm.
Turning to `NS(=O)(=O)c1ccc(N2N=C(c3ccc(O)cc3)CC2c2ccc(Br)cc2)cc1` (stereo not given), the emission maximum is, setting by setting: (in C1CCOC1) 417 nm; (in C1COCCO1) 417 nm; (in CC#N) 417 nm; (in CC(C)O) 423 nm; (in CCO) 428 nm; (in CCOC(C)=O) 415 nm. For the same molecule, the emission maximum stood at 422 nm (in CN(C)C=O), 432 nm (in CO), 424 nm (in CS(C)=O) and 449 nm (in O).
For the setting “in ClCCl”, `Cc1ccc(N(c2ccccc2)c2ccc3ccc4c(N(c5ccccc5)c5ccc(C)cc5)ccc5ccc2c3c54)cc1` displayed an emission maximum of 484 nm.
In turn, `CCC1(CC)c2cc(-c3ccc(-c4ccc5c(c4)C(CC)(CC)c4cc(C(C)(C)C)ccc4-5)cc3)ccc2-c2ccc(C(C)(C)C)cc21` came in with an emission maximum (in CO) of 383.9 nm.
Regarding `Cc1cc(C)c([B-]2(c3c(C)cc(C)cc3C)[O+]=P(c3ccccc3)(c3ccccc3)c3cc(-c4ccc(N(C)C)cc4)sc3-c3sc(-c4ccc(N(C)C)cc4)cc32)c(C)c1`, the emission maximum (in C1CCOC1) stood at 552 nm.
`Cc1ccc(-n2cccc2)cc1`: the emission maximum amounted to 312 nm (in CC#N) and 310 nm (in CCCCCC).
Consider `Nc1cccc2ncccc12`, for which the emission maximum is, setting by setting: (in CC#N) 480 nm; (in O) 534 nm.
As for `COC(=O)C(NC(=O)OC(C)(C)C)c1ccc2oc(-c3cc(OC)c(OC)cc3OC)nc2c1` (stereo not given), the emission maximum by setting is: (in CC1CCCCC1) 357 nm; (in CC#N) 383 nm; (in CO) 389 nm.
With `CC(C)(C)c1cc(C#Cc2ccc3c(C#Cc4cc(C(C)(C)C)cc(C(C)(C)C)c4)cc4c5cc(C#Cc6cc(C(C)(C)C)cc(C(C)(C)C)c6)ccc5c(C#Cc5cc(C(C)(C)C)cc(C(C)(C)C)c5)cc4c3c2)cc(C(C)(C)C)c1`, the emission maximum (in ClCCl) is recorded as 439 nm.
Under “in CS(C)=O”, `CCCCN1/C(=C/C=C/C2=[N+](C)c3ccccc3C2(C)C)C(C)(C)c2ccccc21` returned an emission maximum of 565 nm.
Turning to `CCC/N=C/c1cc2ccc(N(C)C)cc2cc1OC`, the emission maximum is 429 nm (in C1CCOC1); 448 nm (in CC#N); 547 nm (in CC(C)O); 441 nm (in CCOC(C)=O); 449 nm (in CN(C)C=O); 456 nm (in CS(C)=O). Moreover, the emission maximum runs as follows: (in Cc1ccccc1) 418 nm; (in ClCCl) 434 nm; (in O) 556 nm.
Under “in ClCCl”, `c1ccc(Cc2c3ccc(=[N+]4CCCCC4)cc-3oc3cc(N4CCCCC4)ccc23)cc1` yielded an emission maximum of 582 nm.
For `CCCCCCCCN1c2ccc(C#Cc3ccc(OC)cc3)cc2Sc2cc(C=O)ccc21`, the emission maximum was 512 nm (in C1CCOC1); 538 nm (in CC#N); 494 nm (in CCCCCC); 464 nm (in CO); 524 nm (in CS(C)=O); 510 nm (in Cc1ccccc1). This molecule also showed an emission maximum (in ClC(Cl)Cl) of 524 nm.
Take `CC(C)(C)c1ccc2c(c1)c1cc(C(C)(C)C)ccc1n2-c1ccc(C#Cc2cccc(C#Cc3ccc(-n4c5ccc(C(C)(C)C)cc5c5cc(C(C)(C)C)ccc54)cc3)c2)cc1`: the emission maximum is reported as 435 nm (in CC#N); 359 nm (in CCCCC); 426 nm (in CO); 379 nm (in Cc1ccccc1); 400 nm (in ClC(Cl)Cl); 416 nm (in ClCCl).
For the molecule `CN1C(=CC2=C([O-])C(=CC3=[N+](C)c4ccc(Cl)cc4C3(C)C)C2=O)C(C)(C)c2cc(Cl)ccc21`, the emission maximum is, setting by setting: (in CO) 653 nm; (in ClC(Cl)Cl) 654 nm.

Values taken from the Deep4Chem optical property database.
